Assays:
[1] = molecular target: T1, human GPR40 (Homo sapiens, UniProt O14842); test: Effect of regulation of GPR40 receptor function (agonistic effect), intracellular calcium by FLIPR; assay type: cell-based; details: CHO cell line (No. 104) expressing human GPR40, fluorescence intensity at 30 sec after start of reaction
T1 construct: expressed in transfected cells; host or cells: CHO cell line CHO-hGPR40 No. 104 (pAKKO-111 vector)
Description: CHO cell line (No. 104) made to express human GPR40 was diluted such that 3×10^4 cells/100 μL were contained, dispensed to a black walled 96-well plate (Costar) at 100 μL per well, and incubated overnight in a CO2 incubator. The changes in the intracellular calcium concentration were measured using FLIPR (Molecular Device). The method is described in the following.
Fluo-3AM (DOJIN) (50 μg) was dissolved in 21 μl DMSO (DOJIN), and an equal amount of 20% pluronic acid (Molecular Probes) was added and mixed, and the mixture was added to 10.6 ml of an assay buffer [prepared by adding 20 ml of 1M HEPES (pH 7.4) (DOJIN) to 1 L of HBSS (Invitrogen), and adding a mixed solution (10 ml) obtained by dissolving probenecid (Sigma) (710 mg) in 1N NaOH (5 ml) and adding and mixing with the above-mentioned HBSS/HEPES solution (5 ml)] supplemented with 105 μl of fetal calf serum to give a fluorescence dye solution. The medium in the cell plate was removed, a fluorescence dye solution was immediately dispensed at 100 μl per well, and incubated in a CO2 incubator for 1 hr to incorporate fluorescence dye into the cell. The incubated cells were washed with the above-mentioned assay buffer. The compound to be added to the cell was diluted with the assay buffer to each concentration and dispensed to a test sample plate. After the above-mentioned pretreatment, changes in the intracellular calcium concentration after addition of the compound was measured by FLIPR, and the agonistic effect was examined. EC50 value was calculated from a dose response curve based on the changes in the fluorescence intensity value at 30 sec after the start of the reaction.

[2] = molecular target: T2, human-derived GPR40 (Homo sapiens, UniProt O14842); test: Reactivity of fatty acid to human-derived GPR40, intracellular calcium by FLIPR in transfected CHO-K1 cells; assay type: cell-based; details: for response (increase in intracellular calcium concentration) of CHO-K1 cell expressing the GPR40 receptor: added at 10^−5M-10^−6M, FLIPR, control-vector cells showed no response; for activity in intracellular calcium ion mobilization assay using CHO cell expressing GPR40 (GPR40 agonistic activity): as stated in Experimental Example 6
T2 construct: expressed in transfected cells; host or cells: CHO-K1, transient transfection with lipofectamine
T2 sequence (O14842 whole entry): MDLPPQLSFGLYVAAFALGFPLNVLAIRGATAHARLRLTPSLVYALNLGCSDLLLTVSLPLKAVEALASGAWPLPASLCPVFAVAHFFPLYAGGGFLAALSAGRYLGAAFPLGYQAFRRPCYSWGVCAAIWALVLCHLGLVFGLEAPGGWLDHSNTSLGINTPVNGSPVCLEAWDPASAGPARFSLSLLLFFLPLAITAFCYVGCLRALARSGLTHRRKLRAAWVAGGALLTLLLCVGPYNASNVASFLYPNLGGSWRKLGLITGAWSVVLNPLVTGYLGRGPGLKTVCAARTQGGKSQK
Description: Unless specifically indicated, CHO-K1 cell line was cultured using Ham's F-12 medium (Invitrogen) containing 10% fetal calf serum (Invitrogen). The day before transfection, 4.5×10^5 per 10 cm^2 of cells were seeded, and incubated at 37° C. for not less than 15 hrs in a CO2 incubator adjusted to 5% CO2 concentration. The transfection was performed using a lipofectamine reagent (Invitrogen) and according to the reagent attached method. When a 6-well plate was used for a culture plate, transfection was performed in the following manner. First two 1.5 ml volume tubes were prepared, and 100 μl of Opti-MEM-I medium (Invitrogen) was dispensed. Then, […] of an expression vector was added to one tube and 6 μl of a lipofectamine reagent was added to the other tube. They were mixed and stood still at room temperature for 20 min. A mixed solution for transfection containing this solution and Opti-MEM-I medium (800 μl) was added to CHO-K1 cell previously washed with Opti-MEM-I medium, and incubated in a CO2 incubator for 6 hrs. The incubated cells were rinsed with PBS (Invitrogen), detached with 0.05% trypsin-EDTA solution (Invitrogen), recovered by centrifugation. The obtained cells were counted, diluted such that 5×10^4 cells were contained per 200 μl of the medium, dispensed to black walled 96-well plate (Costar) at 200 μl per well, incubated overnight in a CO2 incubator. Various test samples were added to CHO-K1 cells transiently expressing the receptor by the above-mentioned transfection step, and changes in the intracellular calcium concentration then was measured using FLIPR (Molecular Device). For measurement of changes in intracellular calcium concentration by FLIPR, the following pretreatment was applied. First, an assay buffer for adding fluorescence dye Fluo-3AM (DOJIN) to the cell, or washing the cell immediately before FLIPR assay was prepared. To a solution (hereinafter HBSS/HEPES solution) obtained by adding 20 ml of 1M HEPES (pH 7.4) (DOJIN) to 1000 ml of HBSS (Invitrogen) was added a solution (10 ml) obtained by dissolving probenecid (710 mg, Sigma) in 1N NaOH (5 ml) and adding and mixing with HBSS/HEPES solution (5 ml) and the obtained solution was used as an assay buffer. Then, Fluo-3AM (50 μg) was dissolved in 21 μl of DMSO (DOJIN), and an equal amount of 20% pluronic acid (Molecular Probes) was added. The mixture was added to an assay buffer (10.6 ml) supplemented with 105 μl of fetal calf serum to give a fluorescence dye solution. The medium of the CHO-KL cell after transfection treatment was removed, a fluorescence dye solution was immediately dispensed at 100 μl per well and incubated in a CO2 incubator for 1 hr to incorporate the fluorescence dye into the cell. The incubated cells were washed with the above-mentioned assay buffer and set on FLIPR. The test sample to be added to receptor expressing CHO-KL cell was prepared using the assay buffer and simultaneously set on FLIPR. After the above-mentioned pretreatment, changes in the intracellular calcium concentration after addition of various test samples were measured by FLIPR.

[3] = test system: mouse pancreatic β cell line MIN6; test: Promotion of insulin secretion from MIN6 (insulin immunoassay); assay type: cell-based; details: MIN6, KRBH with 22 mM glucose, 90 min
Description: (§1) Mouse pancreatic β cell line MIN6 cultured in a flask was detached with PBS containing 2.5 mM EDTA, and seeded and incubated in a 96 well plate for 2 days. The medium used was obtained by adding 15% fetal bovine serum (ThermoTrace), […] 2-mercaptoethanol (Invitrogen), 20 mM HEPES pH 7.3, 100 U/ml penicillin and 100 μg/ml streptomycin to Dulbecco's Modified Eagle Medium (DMEM, Invitrogen) containing 4.5 g/l of glucose. The cells were washed twice with modified Krebs-Ringer bicarbonate buffer (KRBH, 116 mM NaCl, 4.7 mM KCl, 1.2 mM KH2PO4, 1.2 mM MgSO4, 2.5 mM CaCl2, 25 mM NaHCO3, 24 mM HEPES pH 7.3) and preincubated at 37° C. under 5% CO2 conditions for 30 min. Fatty acid diluted and prepared with a buffer obtained by adding 22 mM glucose to the above-mentioned KRBH was added to the cell after preincubation and the cells were incubated at 37° C. under 5% CO2 conditions for 90 min. After incubation, the cell supernatant was recovered and cryopreserved. The insulin content of the supernatant was measured using a commercially available insulin immunoassay kit (Amersham Pharmacia Biotech).
as §1, with “(KBH,” for “(KRBH,”, “The compound” for “Fatty acid”

[4] = test system: siRNA-introduced MIN6 cell; test: Insulin secretion enhancing activity of fatty acid in siRNA-introduced MIN6; assay type: cell-based, mouse
Description: The expression amount of mouse GPR40-GFP was detected by the following enzyme immunoassay. The culture supernatant was discarded, washed with HBSS (Invitrogen), fixed with 0.01% glutaraldehyde (Wako Pure Chemical Industries, Ltd.) for 5 min., and blocked with PBS (TAKARA SHUZO) containing 2% BSA. 500-fold diluted anti-GFP monoclonal antibody 3E6 (NIPPON GENE CO., LTD.) was added and the cells were incubated at room temperature for 2 hrs., washed and 500-fold diluted HRP-labeled anti-mouse IgG antibody (ICN) was added, and the cells were incubated at room temperature for 2 hrs. After washing, TMB microwell peroxydase substrate (Funakoshi) was added and, after incubation for 30 min., sulfuric acid was added to stop the color developing reaction, and the absorbance at 450 nm was measured.
as §1
Insulin secretion enhancing activity in MIN6 cell, into which m40i103 was introduced using HVJ Envelope VECTOR KIT GenomONE based on the method of Experimental Example 5, was examined. The insulin secretion enhancing activity by fatty acid was examined by the method of Experimental Example 6.

T1 sequence (O14842 whole entry): as above

Compound | EC50 [1] [nM] | response (increase in intracellular calcium concentration) of CHO-K1 cell expressing the GPR40 receptor [2] | also measured
CN(Cc1ccc(C(=O)Nc2ccc(CCC(=O)O)cc2)cc1)c1nc(-c2ccccc2)cs1 [Reference Example 15, 4-[[4-[[methyl(4-phenyl-2-thiazolyl)amino]methyl]benzoyl]amino]benzenepropanoic acid] | 1200 |  | 
CCCCCCCCC#CCC#CCC#CCCCC(=O)O [5.8.11-eicosatriynoic acid] |  | specifically responds | 
O=C(O)CCc1ccc(OCc2ccccc2)cc1 [Reference Example 2, 4-(phenylmethoxy)benzenepropanoic acid] | 320 |  | 
O=C(O)CCc1ccc(OCc2ccc(-c3ccccc3)cc2)cc1 [Example 7, 4-([1,1′-biphenyl]-4-ylmethoxy)benzenepropanoic acid] | 130 |  | 
eicosatrienoic acid |  | specifically responds | 
O=C(O)CCc1ccc(OCCCc2ccccc2)cc1 [Reference Example 6, 4-(3-phenylpropoxy)benzenepropanoic acid] | 460 |  | 
CC/C=C\C/C=C\C/C=C\CCCCCCCC(=O)O [α-linolenic acid] |  |  | activity in intracellular calcium ion mobilization assay using CHO cell expressing GPR40 (GPR40 agonistic activity) [2]: remarkable activity; insulin secretion enhancing activity [3]: significant insulin secretion enhancing activity
CCCCCC#CCC#CCC#CCC#CCCCC(=O)O [5.8.11.14-eicosatetraynoic acid] |  | specifically responds | 
CCCCC/C=C\C/C=C\CCCCCCCC(=O)OC [methyl linolate] |  |  | activity in intracellular calcium ion mobilization assay using CHO cell expressing GPR40 (GPR40 agonistic activity) [2]: no GPR40 agonistic activity; insulin secretion enhancing activity [3]: did not show a significant insulin secretion enhancing activity
O=C(O)CCc1ccc(OCc2ccc(OCc3ccccc3)cc2)cc1 [Example 6, 4-[[4-(phenylmethoxy)phenyl]methoxy]benzenepropanoic-acid] | 160 |  | 
CCCC(=O)O [butyric acid] |  |  | activity in intracellular calcium ion mobilization assay using CHO cell expressing GPR40 (GPR40 agonistic activity) [2]: no GPR40 agonistic activity; insulin secretion enhancing activity [3]: did not show a significant insulin secretion enhancing activity
CCCCC/C=C\C/C=C\C/C=C\C/C=C\CCCCCC(=O)O [adrenic acid] |  | specifically responds | 
CCCCCCCCCCCC(=O)O [lauric acid] |  | specifically responds | 
docosatrienoic acid |  | specifically responds | 
CCCCC/C=C\C/C=C\C/C=C\C/C=C\CCCC(=O)O [arachidonic acid] |  | specifically responds | activity in intracellular calcium ion mobilization assay using CHO cell expressing GPR40 (GPR40 agonistic activity) [2]: remarkable activity; insulin secretion enhancing activity [3]: significant insulin secretion enhancing activity
CCCCC/C=C\C/C=C\CCCCCCCC(=O)O [linoleic acid] |  | specifically responds | activity in intracellular calcium ion mobilization assay using CHO cell expressing GPR40 (GPR40 agonistic activity) [2]: remarkable activity; insulin secretion enhancing activity [3]: significant insulin secretion enhancing activity; insulin secretion enhancing activity of fatty acid ([4]; MIN6 into which GPR40 specific siRNA m40i103 was introduced): no longer showed insulin secretion enhancing activity; insulin secretion enhancing activity of fatty acid ([4]; MIN6 into which random sequence Scramble II duplex siRNA was introduced): retention of the insulin secretion enhancing activity
eicosadienoic acid |  | specifically responds | 
O=C(O)CCc1ccc(OC2CCCc3ccccc32)cc1 (stereo not shown) [Example 2, 4-[(1,2,3,4-tetrahydronaphthalen-1-yl)oxy]benzenepropanoic acid] | 170 |  | 
CC(C)=CCCC(C)=CCCC(C)=CC(=O)O [farnesoic acid] |  | specifically responds | 

From patent publication US7960369B2, “Receptor function regulator” (Takeda Pharmaceutical Company Limited, priority 2002, dated 2011)
